The values that follow are results of earlier work, collected in US9624258B2, “Polymorph of regadenoson” (Biophore India Pharmaceuticals PVT. Ltd., priority 2013, dated 2017).

The conditions of data set [1]: background statement.
Another data set has as its target A2A adenosine receptor (Homo sapiens, UniProt P29274). Particulars: background statement on compound of U.S. Pat. No. 6,403,567.

A2A adenosine receptor, sequence (P29274 whole entry): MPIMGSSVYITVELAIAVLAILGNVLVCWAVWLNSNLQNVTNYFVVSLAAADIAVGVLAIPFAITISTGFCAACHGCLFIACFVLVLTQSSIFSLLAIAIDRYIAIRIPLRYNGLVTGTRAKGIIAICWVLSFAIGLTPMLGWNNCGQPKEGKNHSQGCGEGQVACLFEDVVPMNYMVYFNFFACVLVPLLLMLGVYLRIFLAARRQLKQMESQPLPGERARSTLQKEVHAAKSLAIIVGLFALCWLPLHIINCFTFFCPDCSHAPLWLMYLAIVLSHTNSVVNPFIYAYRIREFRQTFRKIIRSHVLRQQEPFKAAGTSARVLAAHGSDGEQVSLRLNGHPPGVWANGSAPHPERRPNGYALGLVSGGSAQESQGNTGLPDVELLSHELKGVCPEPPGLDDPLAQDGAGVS

In the case of `CNC(=O)c1cnn(-c2nc(N)c3ncn([C@@H]4O[C@H](CO)[C@@H](O)[C@H]4O)c3n2)c1` [Regadenoson, (1-{9-[(4S,2R,3R,5R)-3,4-dihydroxy-5-(hydroxymethyl)oxolan-2-yl)-6-aminopurin-2-yl}pyrazole-4-yl)-N-methylcarboxamide], the biological half-life in data set [1] is 2- to 3 minute. Further, the “A2A adenosine receptor agonist selectivity” value at A2A adenosine receptor is listed as “highly selective A2A adenosine receptor agonist”.
